The text below walks through data of patent US5607691A, “Compositions and methods for enhanced drug delivery” (priority 1995, dated 1997).

The nature of this series: in vitro. The format is in vitro ADME, human. The source says:
Table 4 lists the serum half-lives for several model compounds and two representative pharmaceutical agent-chemical modifier complexes using an in vitro assay system described in the Experimental section below. Of course, the serum half-lives will vary in vivo depending upon the age and health condition of the patient. Each complex comprises a model compound or a pharmaceutical agent, a spacer group, and a chemical modifier. Many of the model compounds utilize 4-nitrophenyl(ethanol, propanol, or cyclohexanol) or 4-nitrophenylethylamine as the "model" pharmaceutical agent. A more complete listing of serum half-lives may be found in the Experimental section below.
General procedure for serum hydrolysis of pharmaceutical agent-modifier complexes
Stock solutions (6 mM) of the pharmaceutical agent-modifier complexes were prepared in ethanol (by vortexing, sonication or warming at 37° C. if necessary). If required for solubility, a drop of dimethylsulfoxide, dimethylformamide or methanol may be added. (Acetonitrile cannot be used because it deactivates the serum enzymes.)
HPLC separation methods were established for each study by dilution of the above stock solution (6 μl) in acetonitrile (1 ml) to give a 36 μM solution. Samples (10 μl) were injected onto a Nucleosil 5C8 (250×4 mmID) and guard column (11×4 mm ID) and eluted with a mobile phase of approximately 65% HPLC grade water and 35% of a solution of 0.1% trifluoroacetic acid in acetonitrile, the exact proportions being adjusted in each case to give optimum separation and run times.
Freshly defrosted human serum (3 ml, Sigma) was warmed at 37° C. for five minutes and then 60 μl of the agent-modifier complex stock solution was added with vortexing. […] The aliquots were added to 800 μl of 2% zinc sulfate solution in a 1.5 ml disposable microcentrifuge tube, vortexed immediately and centrifuged at 14,000 RPM for 3 minutes. The supernatants (10 μl) were then injected onto the HPLC and peak areas were used to determine the % remaining. Serum blanks were prepared similarly by addition of serum to the zinc sulfate solution followed by centrifugation, and time=0 samples were also prepared by adding serum to the zinc sulfate solution followed by addition of the complex and separation by centrifugation. The time=0 samples, as well as the original stock solutions, were also used to study the stability of the complex in the absence of enzyme. Half-lives were calculated using the equation
by plotting time (x) vs. ln % remaining (y) to obtain the slope (m) and the y intercept (b).

Setting [1] is: human, serum, Table 5, human serum, 37° C., read-out: Serum Half-life (converted).
[2] abbreviates: human, serum, untitled table of digoxin derivatives (position/substituent), assay not given, read-out: Half Life (converted).

Structures can show the parent of a compound that is named as a salt. Where two headings read alike, the source gives them in different places.

By half-life is commonly meant the time in which the quantity being followed falls by half. As for `COc1ccc2c(c1)c(CC(=O)OCC[N+](C)(C)C)c(C)n2C(=O)c1ccc(Cl)cc1` [(indomethacinyl)choline iodide, indomethacinylcholine iodide], under setting [1], the half-life was below 1 min. Consider `C[C@]12CC[C@@H]3c4ccc(O)cc4CC[C@H]3[C@@H]1CC[C@@H]2OC(=O)NCC(=O)OCC[N+](C)(C)C` [N-[3-hydroxy-estra-1,3,5(10-trien-17β-yl)oxycarbonyl] glycine (choline iodide) ester], for which the half-life under setting [1] is 1.62 min.

In the case of `COc1ccc2c(c1)c(CC(=O)O[C@H](CC(=O)O)C[N+](C)(C)C)c(C)n2C(=O)c1ccc(Cl)cc1` [O-indomethacinyl-(L-carnitine hydrochloride)], the half-life under setting [1] was above 30 min. For the molecule `CC(=O)OC(CC(=O)OCCCCCCCCCC(=O)OCC(=O)OC1=CC2=CC[C@H]3[C@@H]4CC[C@H](C(C)=O)[C@@]4(C)CC[C@@H]3[C@@]2(C)CC1)C[N+](C)(C)C` (stereo partly shown) [Progesterone 3-{2-O-[10-O-(O-acetylcarnitinyl)decanoyl]glycolic acid} enol ester], under “Table 4, human serum, 37° C.”, the “In vitro Half-Life” value is recorded as 28.9 min. In addition, the “Serum Half-life” value (Table 5, human serum, 37° C.) was determined as 28.9 min. As for `CC(=O)OC1CC(C(=O)OCCc2ccc([N+](=O)[O-])cc2)[N+](C)(C)C1` (stereo not shown) [betonicine-O-acetate 4-nitrophenethyl ester], under setting [1], the half-life is 6 min.

`C#CC[N+](C)(COC(C)=O)C(C)Cc1ccccc1` (stereo not shown) [deprenyl-N-acetoxymethyl, bromide salt]: the half-life under setting [1] is 4.2 min. As to `C#CC[N+](C)(COC(=O)c1ccccc1)C(C)Cc1ccccc1` (stereo not shown) [deprenyl-N-benzoyloxymethyl, iodide salt], the half-life under setting [1] was 5 min. For `C#CC[N+](C)(C(C)Cc1ccccc1)C(C)OC(=O)CCC.[Br-]` (stereo not shown) [deprenyl-N-butyroyloxy-1-ethyl, bromide salt], under “human, serum”, the “Serum Half-life” value is listed as 28 min.

As for `C#CC[N+](C)(COC(=O)CCC)C(C)Cc1ccccc1` (stereo not shown) [deprenyl-N-butyroyloxymethyl, iodide salt], the half-life under setting [1] was 0.283 min. On the same count and under the same terms, in the case of `C#CC[N+](C)(COC(=O)OCC)C(C)Cc1ccccc1` (stereo not shown) [deprenyl-N-ethoxycarbonyloxymethyl, iodide salt] it was 1.18 min; in that of `C#CC[N+](C)(COC(=O)OCCCCCCCC)C(C)Cc1ccccc1` (stereo not shown) [deprenyl-N-octyloxycarbonyloxymethyl, iodide salt], 0.433 min. With `C#CC[N+](C)(COC(=O)C(C)(C)C)C(C)Cc1ccccc1` (stereo not shown) [deprenyl-N-pivaloyloxymethyl, iodide salt], the half-life under setting [1] is 20 min. As for `C[C@]12CC[C@H](OC(=O)CCCCCN3CCOCC3)C[C@H]1CC[C@@H]1[C@@H]2CC[C@]2(C)[C@@H](C3=CC(=O)OC3)CC[C@]12O` [digitoxigenin-3-(6-morpholino-hexanoate)], the half-life under setting [1] was 14900 min. Still for that read-out and setting: in the case of `CC(=O)O[C@H](CC(=O)O[C@H]1CC[C@@]2(C)[C@H](CC[C@@H]3[C@@H]2CC[C@]2(C)[C@@H](C4=CC(=O)OC4)CC[C@]32O)C1)C[N+](C)(C)C` [digitoxigenin-3-(O-acetyl-L-carnitine) ester, chloride salt] it was 324 min; in that of `C[C@]12CC[C@H](OC(=O)OCC[N+](C)(C)C)C[C@H]1CC[C@@H]1[C@@H]2CC[C@]2(C)[C@@H](C3=CC(=O)OC3)CC[C@]12O` [digitoxigenin-3-(O-choline chloride carbonate) ester], 13.6 min; in that of `CCCCCCCCCCCCCCCC(=O)O[C@H](CC(=O)O[C@H]1CC[C@@]2(C)[C@H](CC[C@@H]3[C@@H]2CC[C@]2(C)[C@@H](C4=CC(=O)OC4)CC[C@]32O)C1)C[N+](C)(C)C` [digitoxigenin-3-(O-palmityl-L-carnitine) ester, chloride salt], around 180 min. Consider `CC(=O)OC(CC(=O)NCCCCCCOC(=O)O[C@H]1[C@@H](O)C[C@H](O[C@H]2[C@@H](O)C[C@H](O[C@H]3[C@@H](O)C[C@H](O[C@H]4CC[C@@]5(C)[C@H](CC[C@@H]6[C@@H]5CC[C@]5(C)[C@@H](C7=CC(=O)OC7)CC[C@]65O)C4)O[C@@H]3C)O[C@@H]2C)O[C@@H]1C)C[N+](C)(C)C` (stereo partly shown) [digitoxin-4"'-6-[O-(acetylcarnitinamido)hexyl]carbonate ester], for which the half-life under setting [1] was 34.8 min. With `C[C@H]1O[C@@H](O[C@H]2[C@@H](O)C[C@H](O[C@H]3[C@@H](O)C[C@H](O[C@H]4CC[C@@]5(C)[C@H](CC[C@@H]6[C@@H]5CC[C@]5(C)[C@@H](C7=CC(=O)OC7)CC[C@]65O)C4)O[C@@H]3C)O[C@@H]2C)C[C@H](O)[C@@H]1OC(=O)OCC[N+](C)(C)C` [digitoxin-4"'-(choline chloride) carbonate ester], the half-life under setting [1] is 5.3 min. Turning to `C[C@H]1O[C@@H](O[C@H]2[C@@H](O)C[C@H](O[C@H]3[C@@H](O)C[C@H](O[C@H]4CC[C@@]5(C)[C@H](CC[C@@H]6[C@@H]5C[C@@H](OC(=O)OCOC(=O)CCCCC[N+](C)(C)C)[C@]5(C)[C@@H](C7=CC(=O)OC7)CC[C@]65O)C4)O[C@@H]3C)O[C@@H]2C)C[C@@H]2OC(=O)O[C@@H]21` [digoxin 12-(6-trimethylaminohexanoyloxymethyl carbonate)-3"',4"'-cyclic carbonate, bromide salt], the half-life is, setting by setting: under setting [1], 168 min; under setting [2], 168 min. Take `CC1OC(OC2CCC3(C)C(CCC4C3CC(O)C3(C)C(C5=CC(=O)OC5)CCC43O)C2)CC(O)C1OC1CC(O)C(OC2CC3OC(=O)OC3C(C)O2)C(C)O1` (stereo not shown) [digoxin-3'",4'"-cyclic carbonate]: under setting [1], the half-life is 0.15 min.

For the molecule `CC1OC(OC2C(C)OC(OC3C(C)OC(OC4CCC5(C)C(CCC6C5CC(OC(=O)OCOC(=O)CCCCC[N+](C)(C)C)C5(C)C(C7=CC(=O)OC7)CCC65O)C4)CC3OC(=O)OCOC(=O)CCCCC[N+](C)(C)C)CC2OC(=O)OCOC(=O)CCCCC[N+](C)(C)C)CC2OC(=O)OC12` (stereo not shown) [digoxin-3',3",12-tris-(6-trimethylaminohexanoyloxymethyl carbonate)-3'",4""-cyclic carbonate, tribromide salt], the “Serum Half-life” value (Table 5, human serum, 37° C.) was 840 min. Take `CC1OC(OC2C(C)OC(OC3C(C)OC(OC4CCC5(C)C(CCC6C5CC(O)C5(C)C(C7=CC(=O)OC7)CCC65O)C4)CC3OC(=O)OCOC(=O)CCCCC[N+](C)(C)C)CC2OC(=O)OCOC(=O)CCCCC[N+](C)(C)C)CC2OC(=O)OC12` (stereo not shown) [digoxin-3',3"-bis-(6-trimethylaminohexanoyloxymethyl carbonate)-3'",4'"-cyclic carbonate, bromide salt]: the half-life by setting is: under setting [1], 600 min; under setting [2], 600 min. With `CC1OC(OC2C(C)OC(OC3C(C)OC(OC4CCC5(C)C(CCC6C5CC(O)C5(C)C(C7=CC(=O)OC7)CCC65O)C4)CC3OC(=O)OCC[N+](C)(C)C)CC2OC(=O)OCC[N+](C)(C)C)CC2OC(=O)OC12` (stereo not shown) [digoxin-3',3"-bis-(choline carbonate)-3'",4'"-cyclic carbonate, dibromide salt], under setting [1], the half-life is 2040 min. Consider `C[C@H]1O[C@@H](O[C@H]2[C@@H](O)C[C@H](O[C@H]3[C@@H](O)C[C@H](O[C@H]4CC[C@@]5(C)[C@H](CC[C@@H]6[C@@H]5C[C@@H](O)[C@]5(C)[C@@H](C7=CC(=O)OC7)CC[C@]65O)C4)O[C@@H]3C)O[C@@H]2C)C[C@H](O)[C@@H]1OC(=O)CCCOC(=O)CCC[N+](C)(C)C` [digoxin-4"'-4-(4-trimethylaminobutyroyloxy)butyrate, bromide salt], for which, under setting [1], the half-life was 420 min. On to `CCCCCCCCCCCCCCCC(=O)OC(CC(=O)NCCCCCCOC(=O)OC1C(O)CC(OC2C(O)CC(OC3C(O)CC(OC4CCC5(C)C(CCC6C5CC(O)C5(C)C(C7=CC(=O)OC7)CCC65O)C4)OC3C)OC2C)OC1C)C[N+](C)(C)C` (stereo not shown) [digoxin-4"'-6-O-palmitoylcarnitinamido)hexyl carbonate, chloride salt], for which the half-life under setting [1] is 21 min. Regarding `CC1OC(OC2C(O)CC(OC3C(O)CC(OC4CCC5(C)C(CCC6C5CC(O)C5(C)C(C7=CC(=O)OC7)CCC65O)C4)OC3C)OC2C)CC(O)C1OC(=O)OCCCCCCOC(=O)C[N+](C)(C)C` (stereo not shown) [digoxin-4"'-[1-(6-betainoyloxyhexyl)]carbonate, chloride salt], the half-life under setting [1] is 21 min.

For `CC(=O)OC1CC(C(=O)O[C@H]2[C@@H](O)C[C@H](O[C@H]3[C@@H](O)C[C@H](O[C@H]4[C@@H](O)C[C@H](O[C@H]5CC[C@@]6(C)[C@H](CC[C@@H]7[C@@H]6C[C@@H](O)[C@]6(C)[C@@H](C8=CC(=O)OC8)CC[C@]76O)C5)O[C@@H]4C)O[C@@H]3C)O[C@@H]2C)[N+](C)(C)C1` (stereo partly shown) [digoxin-4"'-[(O-acetyl)-betonicine ester], chloride salt], the half-life under setting [1] was 1.8 min.

In the case of `CC1OC(OC2C(O)CC(OC3C(O)CC(OC4CCC5(C)C(CCC6C5CC(O)C5(C)C(C7=CC(=O)OC7)CCC65O)C4)OC3C)OC2C)CC(O)C1OC(=O)CCCN(C)C` (stereo not shown) [digoxin-4'"-4-(dimethylamino)butyrate], the half-life under setting [1] was 84 min.
